According to PMC8436411 (ACS Medicinal Chemistry Letters, 2021):
Where “and” joins values, the source holds several entries; their conditions need not be identical. Equal values may be shown once. Read-outs that look alike come from different tables or passages of the source.

Legend:
S. aureus DNA gyrase = target: T1, S. aureus DNA gyrase (Staphylococcus aureus, UniProt P20831); assay: DNA gyrase supercoiling inhibition assay (S. aureus); format: biochemical; details: mean of two independent measurements ± SD
T1 construct: purchased Inspiralis (Norwich, UK)
Experimental: We synthesized and biologically evaluated ten new compounds. We determined their inhibitory activity, expressed as IC50 values, on both Gram-positive S. aureus and Gram-negative E. coli bacterial enzymes (DNA gyrase and topo IV), respectively. The in vitro antibacterial activity, expressed as minimum inhibitory concentration (MIC), was determined against broad spectrum of bacteria, including Gram-positive (Staphylococcus aureus, methicillin-resistant Staphylococcus aureus, Streptococcus agalactiae, and Enterococcus faecalis) and Gram-negative strains (Escherichia coli, Salmonella alachua, Pseudomonas aeruginosa, and Klebsiella pneumoniae), enriched with various MRSA strains resistant to various antibiotics as well as E. coli strains with increased membrane permeability and lack of efflux pump, as well. Furthermore, the selectivity of compounds for bacterial enzyme compared to the orthologous human topoisomerase IIα was also considered. The in vitro safety profile was determined by cytotoxicity assessment on human umbilical vein endothelial cell lines (HUVEC) and HepG2 liver cancer cell lines.
Determination of DNA gyrase and topoisomerase IV inhibitory activities
To determine the IC50 values of the compounds, a Gyrase Supercoiling High Throughput Plate assay kit and a TopoIV Relaxation High Throughput Plate assay kit, commercially available from Inspiralis (Norwich, UK), were used for S. aureus and E. coli. The assays were performed on black streptavidin-coated 96-well microtiter plates (Thermo Scientific Pierce, Norwich, UK) and the wells were first […]
BSA and 0.05% [v/v] Tween-20). Biotinylated oligonucleotide diluted with the wash buffer was then immobilized in each well and the excess was removed with the wash buffer. 1.5 U of the enzyme S. aureus or E. coli DNA gyrase (topoIV) was incubated together with 0.75 μg of relaxed (supercoiled) pNO1 plasmid as substrate in the presence of 3 μl inhibitor solution in 10% DMSO and 0.008% Tween-20 at 37°C for 30 min in a final reaction volume of 30 μl in the assay buffer (S. aureus DNA gyrase: 40 mM HEPES.KOH (pH 7.6), 10 mM magnesium acetate, 10 mM DTT, 2 mM ATP, 500 mM potassium glutamate and 0.05 mg/ml albumin; E. coli DNA gyrase: 35 mM Tris.HCl (pH 7.5), 24 […]
mg/ml albumin; S. aureus topo IV: 50 mM Tris.HCl (7.5), 5 mM MgCl 2, 5 mM DTT, 1.5 mM ATP, 350 mM potassium glutamate and 0.05 mg/ml albumin; E. coli topo IV: 40 mM HEPES.KOH (pH 7.6), 100 mM potassium glutamate, 10 mM magnesium acetate, 10 mM DTT, 1 mM ATP and 50 μg/ml albumin). The reaction was stopped by adding the TF buffer (50 mM NaOAc (pH 4.7), 50 mM NaCl and 50 mM MgCl2) to allow triplex formation (biotin oligonucleotide plasmid) for another 30 min. Finally, the unbound plasmid was washed off using the TF buffer and the Promega Diamond dye was added to T10 buffer (10 mM Tris-HCl (pH 8.0), 1 mM EDTA) solution. After 15 min the solution […]
Two inhibitor concentrations of 100 and 1 μM were used for pre-screening. The IC 50 values […]
(IC50) was calculated by nonlinear regression-based fitting of the inhibition curves using the log [inhibitor] versus response-variable slope (four parameters) – symmetrical equation, in GraphPad Prism 6.0 software (GraphPad Software, CA, USA). The IC50 value represents the average of two independent measurements.
The minimum inhibitory concentrations (MICs) were determined using the broth micro-dilution method in 96-well plate format according to the Clinical and Laboratory Standards Institute

Human topoisomerase IIα = Human topoisomerase IIα (Homo sapiens, UniProt P11388); assay: Human topoisomerase IIα residual activity; format: biochemical; details: residual activity at 10 μM compound; mean ± SD, two independent experiments; read-out: Human topoisomerase IIα (%RA)
MRSA (QA-11.7) = assay: microbe, parasite or virus in culture; details: Staphylococcus aureus, read-out: MIC MRSA (QA-11.7)
Experimental: (§1) The in vitro antibacterial activity, expressed as minimum inhibitory concentration (MIC), was determined against broad spectrum of bacteria, including Gram-positive (Staphylococcus aureus, methicillin-resistant Staphylococcus aureus, Streptococcus agalactiae, and Enterococcus faecalis) and Gram-negative strains (Escherichia coli, Salmonella alachua, Pseudomonas aeruginosa, and Klebsiella pneumoniae), enriched with various MRSA strains resistant to various antibiotics as well as E. coli strains with increased membrane permeability and lack of efflux pump, as well. […]
(§2) The minimum inhibitory concentrations (MICs) were determined using the broth micro-dilution method in 96-well plate format according to the Clinical and Laboratory Standards Institute […]
(§3) guidelines8 and European Committee on Antimicrobial Susceptibility Testing recommendations9. The bacterial suspension of the specific bacterial strain equivalent to the 0.5 McFarland turbidity standard was diluted with cation-adapted Mueller Hinton broth with TES (Thermo Fisher Scientific) to obtain a […]
(§4) The compounds dissolved in DMSO and inoculum were mixed together and incubated for 20 h at 35 °C.

S. aureus (ATCC 29213) = assay: microbe, parasite or virus in culture; details: Staphylococcus aureus, ATCC29213, read-out: MIC S. aureus (ATCC 29213)
Experimental: as §1, §2, §3, §4

[1] = test system: Pseudomonas aeruginosa RDK 184 (DSM 939); assay: microbe, parasite or virus in culture
Experimental: as §1, §2, §3, §4

Klebsiella pneumoniae = assay: microbe, parasite or virus in culture
Experimental: as §1, §2, §3, §4

E. coli D22 = assay: microbe, parasite or virus in culture; details: Escherichia coli
Experimental: as §1, §2, §3, §4

MRSA (QA-12.1) = assay: microbe, parasite or virus in culture; details: Staphylococcus aureus, read-out: MIC MRSA (QA-12.1)
Experimental: as §1, §2, §3, §4

[2] = test system: Salmonella alachua RDK 030c (QA-1482/04); assay: microbe, parasite or virus in culture
Experimental: as §1, §2, §3, §4

[3] = test system: Enterococcus faecalis DRK 057 (ATCC 29212); assay: microbe, parasite or virus in culture
Experimental: as §1, §2, §3, §4

[4] = test system: Streptococcus agalactiae RDK 047 (QA-990/02); assay: microbe, parasite or virus in culture
Experimental: as §1, §2, §3, §4

E. coli (ATCC 25922) = assay: microbe, parasite or virus in culture; details: Escherichia coli, ATCC25922, read-out: MIC E. coli (ATCC 25922)
Experimental: as §1, §2, §3, §4

[5] = test system: E. coli N43 (CGSC no. 5583); assay: microbe, parasite or virus in culture; details: Escherichia coli
Experimental: as §1, §2, §3, §4

[6] = DSM939, read-out: MIC P. aeruginosa RDK 184 (DSM 939)
[7] = DSM939, read-out: MIC Pseudomonas aeruginosa RDK 184 (DSM 939)
[8] = read-out: MIC Klebsiella pneumoniae
[9] = read-out: MIC S. alachua RDK 030c (QA-1482/04)
[10] = read-out: MIC Salmonella alachua RDK 030c (QA-1482/04)
[11] = ATCC29212, read-out: MIC E. faecalis DRK 057 (ATCC 29212)
[12] = ATCC29212, read-out: MIC Enterococcus faecalis DRK 057 (ATCC 29212)
[13] = read-out: MIC S. agalactiae RDK 047 (QA-990/02)
[14] = read-out: MIC Streptococcus agalactiae RDK 047 (QA-990/02)
[15] = read-out: MIC E. coli N43 (CGSC no. 5583)
[16] = read-out: MIC E. coli N43 (CGSC# 5583)

T1 sequence (P20831 whole entry, looked up): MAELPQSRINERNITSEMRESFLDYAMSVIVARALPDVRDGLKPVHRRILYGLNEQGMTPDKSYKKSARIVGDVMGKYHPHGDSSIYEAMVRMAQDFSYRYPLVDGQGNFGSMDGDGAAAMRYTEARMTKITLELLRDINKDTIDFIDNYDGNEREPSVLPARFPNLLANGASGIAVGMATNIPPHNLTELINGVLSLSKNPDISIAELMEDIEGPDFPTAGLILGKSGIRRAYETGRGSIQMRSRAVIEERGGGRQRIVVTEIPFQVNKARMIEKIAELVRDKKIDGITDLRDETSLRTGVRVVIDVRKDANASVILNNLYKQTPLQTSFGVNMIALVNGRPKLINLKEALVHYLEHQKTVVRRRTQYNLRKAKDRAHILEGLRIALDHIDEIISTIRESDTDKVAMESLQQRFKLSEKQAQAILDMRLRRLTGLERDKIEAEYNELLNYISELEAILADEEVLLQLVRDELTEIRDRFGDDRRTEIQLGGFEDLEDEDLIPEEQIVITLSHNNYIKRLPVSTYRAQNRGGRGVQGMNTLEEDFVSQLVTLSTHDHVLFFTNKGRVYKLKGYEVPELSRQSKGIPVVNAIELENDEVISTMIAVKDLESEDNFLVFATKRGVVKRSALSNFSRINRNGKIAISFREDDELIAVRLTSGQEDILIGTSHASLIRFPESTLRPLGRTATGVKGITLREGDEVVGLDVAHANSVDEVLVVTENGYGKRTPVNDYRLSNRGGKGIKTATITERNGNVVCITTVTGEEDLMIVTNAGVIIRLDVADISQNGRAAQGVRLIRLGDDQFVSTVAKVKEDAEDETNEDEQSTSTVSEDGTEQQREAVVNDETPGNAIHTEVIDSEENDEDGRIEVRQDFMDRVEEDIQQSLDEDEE
Sequence of Human topoisomerase IIα (P11388 whole entry): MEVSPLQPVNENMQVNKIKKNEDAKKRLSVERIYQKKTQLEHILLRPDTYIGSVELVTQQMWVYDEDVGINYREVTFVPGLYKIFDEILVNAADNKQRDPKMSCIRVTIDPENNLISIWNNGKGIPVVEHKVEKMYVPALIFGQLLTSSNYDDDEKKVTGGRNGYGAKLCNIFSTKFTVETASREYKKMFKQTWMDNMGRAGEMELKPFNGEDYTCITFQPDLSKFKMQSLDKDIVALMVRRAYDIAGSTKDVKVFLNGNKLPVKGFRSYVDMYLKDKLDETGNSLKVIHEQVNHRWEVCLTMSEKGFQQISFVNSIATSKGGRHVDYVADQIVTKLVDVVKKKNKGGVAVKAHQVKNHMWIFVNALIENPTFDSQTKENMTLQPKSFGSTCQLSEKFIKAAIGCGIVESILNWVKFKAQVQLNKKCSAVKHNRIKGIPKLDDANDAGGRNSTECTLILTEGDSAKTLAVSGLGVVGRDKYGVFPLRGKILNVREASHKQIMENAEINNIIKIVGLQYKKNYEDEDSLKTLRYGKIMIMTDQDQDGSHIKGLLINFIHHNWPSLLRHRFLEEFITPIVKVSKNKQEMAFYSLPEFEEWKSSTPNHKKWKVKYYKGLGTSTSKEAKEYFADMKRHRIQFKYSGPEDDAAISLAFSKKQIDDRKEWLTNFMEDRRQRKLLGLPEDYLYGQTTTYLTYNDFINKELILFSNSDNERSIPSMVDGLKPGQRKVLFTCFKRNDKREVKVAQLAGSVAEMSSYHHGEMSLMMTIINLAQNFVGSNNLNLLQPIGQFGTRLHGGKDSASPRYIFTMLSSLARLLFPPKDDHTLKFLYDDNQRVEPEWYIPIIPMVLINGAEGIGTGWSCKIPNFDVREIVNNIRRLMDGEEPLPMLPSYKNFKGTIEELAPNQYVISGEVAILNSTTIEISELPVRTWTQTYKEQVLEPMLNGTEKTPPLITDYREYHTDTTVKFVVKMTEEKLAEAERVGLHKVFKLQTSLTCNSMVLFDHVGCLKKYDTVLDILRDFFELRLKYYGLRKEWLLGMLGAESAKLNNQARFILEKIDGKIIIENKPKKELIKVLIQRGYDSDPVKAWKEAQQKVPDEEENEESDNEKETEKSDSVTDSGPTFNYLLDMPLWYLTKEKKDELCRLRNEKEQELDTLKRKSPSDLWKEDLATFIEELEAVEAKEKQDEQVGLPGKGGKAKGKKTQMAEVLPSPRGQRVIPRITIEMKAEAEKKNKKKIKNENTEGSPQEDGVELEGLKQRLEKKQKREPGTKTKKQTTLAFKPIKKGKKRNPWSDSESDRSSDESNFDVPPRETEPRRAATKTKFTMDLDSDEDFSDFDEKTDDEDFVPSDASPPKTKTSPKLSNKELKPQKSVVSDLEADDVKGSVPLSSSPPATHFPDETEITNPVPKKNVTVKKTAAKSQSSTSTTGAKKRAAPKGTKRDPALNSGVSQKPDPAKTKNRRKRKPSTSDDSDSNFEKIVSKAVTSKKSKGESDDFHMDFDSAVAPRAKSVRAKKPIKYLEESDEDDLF

Row | Compound | IC50 (S. aureus DNA gyrase) [nM] | remaining activity at 10 µM (Human topoisomerase IIα) [%] | MIC (MRSA (QA-11.7)) | MIC (S. aureus (ATCC 29213)) | MIC [1, 6] [µM] | MIC [1, 7] [µg/mL] | MIC (Klebsiella pneumoniae; read-out: MIC K. pneumoniae) [µM] | MIC (Klebsiella pneumoniae; [8]) [µg/mL] | MIC (E. coli D22; D22, read-out: MIC E. coli D2) [µM] | MIC (E. coli D22; D22, read-out: MIC E. coli D22) [µg/mL] | MIC (MRSA (QA-12.1)) | MIC [2, 9] [µM] | MIC [2, 10] [µg/mL] | MIC [3, 11] [µM] | MIC [3, 12] [µg/mL] | MIC [4, 13] [µM] | MIC [4, 14] [µg/mL] | MIC (E. coli (ATCC 25922)) | MIC [5, 15] [µg/mL] | MIC [5, 16] [µM]
1 | COc1ccc2nccc(CCN3CCC(NCc4ccc(I)c(F)c4F)CC3)c2n1 [Compound 11] | 9 ± 1 | 94.9 ± 5.67 | 0.058 µM and 0.031 µg/mL | 0.015 µM and 0.008 µg/mL | 119 | 64 | 59.4 | 32 | 0.23 | 0.125 | 0.115 µM and 0.062 µg/mL | 14.9 | 8 | 0.929 | 0.5 | 0.929 | 0.5 | 3.71 µM and 2 µg/mL | 0.031 | 0.058
2 | COc1ccc2nccc(CCN3CCC(NCc4cc(F)c(Br)cc4F)CC3)c2n1 [Compound 9] | 9 ± 1 | 98.83 ± 0.11 | 0.033 µM and 0.016 µg/mL | 0.016 µM and 0.008 µg/mL | 260 | 128 | 130 | 64 | 0.509 | 0.25 | 0.033 µM and 0.016 µg/mL | 32.6 | 16 | 1.02 | 0.5 | 0.509 | 0.25 | 2.04 µM and 1 µg/mL | 0.062 | 0.126
3 | COc1ccc2nccc(CCN3CCC(NCc4cc(F)c(Cl)c(F)c4)CC3)c2n1 [Compound 7] | 14 ± 2 | 99.43 ± 0.57 | 0.069 µM and 0.031 µg/mL | 0.018 µM and 0.008 µg/mL | 35.8 | 16 | 17.9 | 8 | 0.069 | 0.031 | 0.069 µM and 0.031 µg/mL | 4.47 | 2 | 1.12 | 0.5 | 1.12 | 0.5 | 1.12 µM and 0.5 µg/mL | 0.062 | 0.139
4 | COc1ccc2nccc(CCN3CCC(NCc4ccc(Cl)nc4)CC3)c2n1 [Compound 12] | 283 ± 9 | 99.7 ± 1.48 | 2.43 µM and 1 µg/mL | 2.43 µM and 1 µg/mL | > 311 | > 128 | > 311 | > 128 | 9.71 | 4 | 4.86 µM and 2 µg/mL | > 311 | > 128 | 77.7 | 32 | 155 | 64 | 77.7 µM and 32 µg/mL | 8 | 19.4
5 | COc1ccc2nccc(CCN3CCC(NCc4ccc(Br)c(F)c4)CC3)c2n1 [Compound 5] | 7 | 98.46 ± 0.45 | 0.034 µM and 0.016 µg/mL | 0.017 µM and 0.008 µg/mL | 67.6 | 32 | 33.8 | 16 | 0.131 | 0.062 | 0.065 µM and 0.031 µg/mL | 8.45 | 4 | 1.06 | 0.5 | 4.22 | 2 | 2.11 µM and 1 µg/mL | 0.031 | 0.065
6 | COc1ccc2nccc(CCN3CCC(NCc4ccc(Cl)cn4)CC3)c2n1 [Compound 13] | 123 ± 19 | 99.36 ± 0.34 | 0.607 µM and 0.25 µg/mL | 0.303 µM and 0.125 µg/mL | > 311 | > 128 | > 311 | > 128 | 38.8 | 16 | 0.607 µM and 0.25 µg/mL | > 311 | > 128 | 9.71 | 4 | 19.4 | 8 | 77.7 µM and 32 µg/mL | 8 | 19.4
7 | COc1ccc2nccc(CCN3CCC(NCc4ccc(Cl)c(F)c4)CC3)c2n1 [Compound 4] | 6 ± 1 | 99.2 ± 0.52 | 0.072 µM and 0.031 µg/mL | 0.072 µM and 0.031 µg/mL | 149 | 64 | 74.6 | 32 | 0.583 | 0.25 | 0.072 µM and 0.031 µg/mL | 18.7 | 8 | 4.66 | 2 | 2.33 | 1 | 4.66 µM and 2 µg/mL | 0.062 | 0.145
8 | COc1ccc2nccc(CCN3CCC(NCc4ccc(Br)c(F)c4F)CC3)c2n1 [Compound 10] | 9 | 98.11 ± 0.91 | 0.126 µM and 0.062 µg/mL | 0.063 µM and 0.031 µg/mL | > 260 | > 128 | 130 | 64 | 1.02 | 0.5 | 0.126 µM and 0.062 µg/mL | 32.6 | 16 | 4.07 | 2 | 4.07 | 2 | 8.14 µM and 4 µg/mL | 0.125 | 0.254
